Results on three compounds are retold here after ChEMBL document CHEMBL5055650, “4-Acyl Pyrrole Capped HDAC Inhibitors: A New Scaffold for Hybrid Inhibitors of BET Proteins and Histone Deacetylases as Antileukemia Drug Leads” (J Med Chem, 2021).

Activity calls are given as the source filed them. No cut-off for these calls is given here.

The test system of test [1] is MOLT-4. Description: Cytotoxicity against human MOLT-4 cells assessed as cell viability at 5 uM by CellTiter-Glo luminescent assay. The class given is functional. To be noted: read-out: Activity. A general note: In ATP-based viability assays light output follows the ATP content of the culture.
The test system of test [2] is HAL-01. Description: Anticancer activity against human HAL-01 cells assessed as cell growth inhibition by CellTiter-Glo luminescent assay. The class given is functional, cell-based.
Test [3] addresses T1, Bromodomain-containing protein 3 (Homo sapiens, UniProt Q15059). Description: Binding affinity to human BRD3 domain 2 assessed as dissociation constant by isothermal titration calorimetry assay. Background: Isothermal titration calorimetry measures the heat released or taken up as one component is titrated into another.
For test [4], the system named is HL-60. Description: Anticancer activity against human HL-60 cells assessed as cell growth inhibition by CellTiter-Glo luminescent assay. It counts as functional, cell-based.
In test [5] the test system is HPBALL. Description: Induction of apoptosis in human HPBALL cells assessed as decrease in MYC protein levels at 5 uM after 24 hrs by Western blot analysis. The class given is functional, cell-based. For orientation: Immunoblotting shows a protein as a band on a membrane.
In test [6] the target is T2, Bromodomain-containing protein 2 (Homo sapiens, UniProt P25440). Description: Binding affinity to human BRD2 domain 2 assessed as dissociation constant by isothermal titration calorimetry assay.
The target of test [7] is T3, Bromodomain-containing protein 7 (Homo sapiens, UniProt Q9NPI1).
T3 sequence (Q9NPI1 whole entry): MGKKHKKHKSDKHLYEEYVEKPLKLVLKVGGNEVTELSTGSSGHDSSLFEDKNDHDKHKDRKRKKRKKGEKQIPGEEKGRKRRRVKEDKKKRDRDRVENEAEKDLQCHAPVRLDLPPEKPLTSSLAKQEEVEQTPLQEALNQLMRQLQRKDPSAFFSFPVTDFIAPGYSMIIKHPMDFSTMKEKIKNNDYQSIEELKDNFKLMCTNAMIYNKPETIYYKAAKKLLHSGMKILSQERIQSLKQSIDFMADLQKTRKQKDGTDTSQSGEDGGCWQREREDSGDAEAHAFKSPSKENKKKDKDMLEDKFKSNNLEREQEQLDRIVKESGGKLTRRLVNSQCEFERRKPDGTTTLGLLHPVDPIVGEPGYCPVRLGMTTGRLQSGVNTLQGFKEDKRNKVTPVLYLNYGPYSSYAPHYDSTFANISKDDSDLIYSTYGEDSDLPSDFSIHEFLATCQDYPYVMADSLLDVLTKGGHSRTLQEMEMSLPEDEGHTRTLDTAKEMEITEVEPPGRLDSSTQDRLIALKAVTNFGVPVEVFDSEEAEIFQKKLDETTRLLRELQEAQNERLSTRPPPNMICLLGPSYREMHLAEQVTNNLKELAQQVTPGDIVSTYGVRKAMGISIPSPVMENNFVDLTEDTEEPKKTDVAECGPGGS
Description: Binding affinity to human BRD7 assessed as dissociation constant by isothermal titration calorimetry assay.

Test [8] relates to HPBALL. Description: Anticancer activity against human HPBALL cells assessed as cell growth inhibition by CellTiter-Glo luminescent assay. It counts as functional, cell-based.
The target in test [9] is Histone deacetylase (Homo sapiens) (UniProt Q13547+O15379+Q9UBN7+Q92769+Q9UQL6+Q8WUI4+Q9BY41+Q96DB2+P56524+Q9UKV0+Q969S8). Description: Inhibition of HDAC in human K562 cells assessed as increase in acetylated alpha-tubulin measured after 48 hrs by Western blot analysis. It counts as cell-based.
For test [10], the target named is Bromodomain-containing protein 4 (Homo sapiens, UniProt O60885). Description: Binding affinity to human BRD4 domain 1 (unknown origin) assessed as dissociation constant by isothermal titration calorimetry assay. To be noted: read-out: Kd.
Test [11] has as its system HPBALL. Description: Induction of apoptosis in human HPBALL cells assessed as accumulation at sub-G1 phase at 5 uM after 72 hrs by flow cytometry. The class given is functional, cell-based.
The test system of test [12] is HL-60. Description: Cytotoxicity against human HL-60 cells assessed as cell viability at 5 uM by CellTiter-Glo luminescent assay. It counts as functional. To be noted: read-out: Activity.
For test [13], the system named is TALL-1. Description: Anticancer activity against human TALL-1 cells assessed as cell growth inhibition by CellTiter-Glo luminescent assay. The class given is functional, cell-based.
Test [14] addresses Histone deacetylase 2 (Homo sapiens, UniProt Q92769). Description: Inhibition of human HDAC2 assessed as target activity using fluorogenic substrate ZMAL for 90 min by microplate reader at 355nm.
The target of test [15] is T1, Bromodomain-containing protein 3. Description: Binding affinity to human BRD3 domain 1 assessed as dissociation constant by isothermal titration calorimetry assay.
In test [16] the test system is REH. Description: Anticancer activity against human REH cells assessed as cell growth inhibition by CellTiter-Glo luminescent assay. It counts as functional, cell-based.
Test [17] relates to TALL-1. Description: Cytotoxicity against human TALL-1 cells assessed as cell viability at 5 uM by CellTiter-Glo luminescent assay. It counts as functional. To be noted: read-out: Activity.
Test [18] addresses T2, Bromodomain-containing protein 2. Description: Binding affinity to human BRD2 domain 1 assessed as dissociation constant by isothermal titration calorimetry assay.
Test [19] has as its target Histone deacetylase 1 (Homo sapiens, UniProt Q13547). Description: Inhibition of human recombinant HDAC1 assessed as fluorescence using fluorogenic substrate ZMAL incubated for 90 min by microplate reader.

Histone deacetylase 1, sequence (Q13547 whole entry): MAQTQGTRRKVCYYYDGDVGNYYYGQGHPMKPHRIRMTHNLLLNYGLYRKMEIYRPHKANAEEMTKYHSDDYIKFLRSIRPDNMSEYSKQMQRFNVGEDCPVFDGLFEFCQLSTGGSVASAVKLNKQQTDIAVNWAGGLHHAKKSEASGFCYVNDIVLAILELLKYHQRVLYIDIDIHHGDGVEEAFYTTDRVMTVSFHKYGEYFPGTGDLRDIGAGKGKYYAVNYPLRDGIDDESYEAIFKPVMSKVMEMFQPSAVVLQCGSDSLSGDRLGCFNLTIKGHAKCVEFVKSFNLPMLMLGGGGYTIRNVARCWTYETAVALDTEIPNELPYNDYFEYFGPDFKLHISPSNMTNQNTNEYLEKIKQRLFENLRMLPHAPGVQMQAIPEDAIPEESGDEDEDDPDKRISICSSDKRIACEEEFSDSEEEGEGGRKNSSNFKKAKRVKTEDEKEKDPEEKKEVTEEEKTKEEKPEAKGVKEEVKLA
Histone deacetylase 2, sequence (Q92769 whole entry, the tested form may be a part): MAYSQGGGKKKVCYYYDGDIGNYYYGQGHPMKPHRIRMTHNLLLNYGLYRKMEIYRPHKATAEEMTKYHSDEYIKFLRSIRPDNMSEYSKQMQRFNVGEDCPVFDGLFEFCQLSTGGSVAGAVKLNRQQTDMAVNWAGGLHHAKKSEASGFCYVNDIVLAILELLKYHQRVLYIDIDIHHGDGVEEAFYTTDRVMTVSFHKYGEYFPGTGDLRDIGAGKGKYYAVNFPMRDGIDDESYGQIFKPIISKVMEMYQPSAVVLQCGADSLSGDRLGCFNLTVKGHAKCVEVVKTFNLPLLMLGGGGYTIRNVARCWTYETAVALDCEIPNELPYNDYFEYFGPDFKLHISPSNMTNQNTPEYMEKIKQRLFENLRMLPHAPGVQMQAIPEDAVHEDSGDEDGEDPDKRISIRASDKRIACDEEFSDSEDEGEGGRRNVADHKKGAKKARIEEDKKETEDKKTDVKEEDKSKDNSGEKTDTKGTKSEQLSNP
T2 sequence (P25440 whole entry, the tested form may be a part): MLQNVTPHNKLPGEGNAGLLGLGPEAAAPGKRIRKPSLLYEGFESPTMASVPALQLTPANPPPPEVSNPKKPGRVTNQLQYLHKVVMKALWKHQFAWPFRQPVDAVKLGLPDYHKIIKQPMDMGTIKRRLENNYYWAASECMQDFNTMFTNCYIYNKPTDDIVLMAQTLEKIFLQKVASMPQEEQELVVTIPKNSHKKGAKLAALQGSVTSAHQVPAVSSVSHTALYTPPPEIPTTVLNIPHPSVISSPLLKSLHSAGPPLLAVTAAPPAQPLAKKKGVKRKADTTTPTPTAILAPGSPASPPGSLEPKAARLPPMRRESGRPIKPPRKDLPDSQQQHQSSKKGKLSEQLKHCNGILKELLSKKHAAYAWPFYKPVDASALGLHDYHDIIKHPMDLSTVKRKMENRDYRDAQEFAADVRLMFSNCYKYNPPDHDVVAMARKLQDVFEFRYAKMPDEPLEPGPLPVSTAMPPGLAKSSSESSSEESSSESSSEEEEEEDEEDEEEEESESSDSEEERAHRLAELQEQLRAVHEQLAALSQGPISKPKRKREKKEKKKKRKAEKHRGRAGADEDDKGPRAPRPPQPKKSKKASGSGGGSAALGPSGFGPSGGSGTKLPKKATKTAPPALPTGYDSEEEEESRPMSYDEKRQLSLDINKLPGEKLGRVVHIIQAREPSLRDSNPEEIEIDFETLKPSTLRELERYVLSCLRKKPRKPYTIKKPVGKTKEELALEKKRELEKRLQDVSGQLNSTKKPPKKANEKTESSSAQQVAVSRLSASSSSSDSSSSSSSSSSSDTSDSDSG
T1 sequence (Q15059 whole entry, the tested form may be a part): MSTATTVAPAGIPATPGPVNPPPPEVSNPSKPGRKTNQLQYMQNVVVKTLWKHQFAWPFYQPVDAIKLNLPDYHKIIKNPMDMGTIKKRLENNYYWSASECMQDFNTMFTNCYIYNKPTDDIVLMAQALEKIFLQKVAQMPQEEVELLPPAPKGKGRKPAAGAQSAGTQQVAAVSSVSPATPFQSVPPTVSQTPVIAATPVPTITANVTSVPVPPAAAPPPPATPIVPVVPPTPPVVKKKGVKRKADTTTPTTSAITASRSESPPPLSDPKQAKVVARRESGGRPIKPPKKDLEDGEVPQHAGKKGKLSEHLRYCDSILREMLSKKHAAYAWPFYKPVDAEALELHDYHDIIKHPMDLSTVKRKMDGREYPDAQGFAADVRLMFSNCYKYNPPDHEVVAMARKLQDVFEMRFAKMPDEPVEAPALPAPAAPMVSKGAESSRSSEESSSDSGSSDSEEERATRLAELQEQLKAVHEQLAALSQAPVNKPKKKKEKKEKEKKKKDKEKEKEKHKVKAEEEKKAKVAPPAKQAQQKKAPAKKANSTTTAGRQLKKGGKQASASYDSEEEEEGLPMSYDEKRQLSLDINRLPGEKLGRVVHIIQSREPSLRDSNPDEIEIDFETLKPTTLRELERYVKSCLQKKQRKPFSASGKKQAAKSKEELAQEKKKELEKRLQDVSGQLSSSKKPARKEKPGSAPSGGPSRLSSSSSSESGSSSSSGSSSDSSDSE

Consider `COc1ccc(S(=O)(=O)n2ccc(/C=C/C(=O)NO)c2)cc1NC(=O)c1[nH]c(C)c2c1CCCCC2=O`, for which the viability at 5 µM in [1] is 4%; in [12], 42.3%; in test [17] it was 10.6%. For the same compound, the IC50 (as a rule, the concentration needed to halve the response being measured) in test [2] turned out to be 6.41 µM; in [4], 4.63 µM; in test [8] it was 6.31 µM; in [13], 2.33 µM; in test [14] it was 0.208 µM; in test [16] it was 9.76 µM. Further, the IC50 in [19] worked out at 0.093 µM. In addition, the Kd – broadly, the concentration at which binding is half-saturated – in [3] came out at 3.75 µM; in [6], 3.1 µM; in test [7], 0.23 µM; in test [10], 0.79 µM; in [15], 1.5 µM; in test [18], 0.23 µM. Also, the outcome in test [5], in [9] and in [11] was Active.
As to `Cc1[nH]c(C(=O)Nc2cc(S(=O)(=O)N3CCOCC3)ccc2OCCCCCCCC(=O)NO)c2c1C(=O)CCCC2`, the results for the viability at 5 µM in [1], in test [12] and in [17] were 1.7%, 35.9% and 50%, respectively. The IC50 in test [2] stood at 5.93 µM; in test [4], 2.75 µM; in test [8] it was 7.13 µM; in test [13], 2.93 µM; in test [14], 0.534 µM; in test [16], 7.79 µM. Further, the IC50 in test [19] stood at 0.163 µM. The Kd turned out to be 0.1 µM in test [3]; 0.067 µM in [6]; 0.125 µM in [7]; 0.076 µM in [10]; 0.037 µM in test [15]; 0.027 µM in test [18]. Further, the result in [5], in test [9] and in test [11] was Active.
In the case of `CCc1c(C(=O)Nc2cc(/C=C/C(=O)NO)ccc2OC)[nH]c(C)c1C(C)=O`, the figures for the viability at 5 µM in test [1], in [12] and in test [17] were 3.5%, 22.1% and 15.1%, respectively. Also, the IC50 is more than 25 µM in test [2]; 7.82 µM in test [4]; 6.79 µM in [8]; 2.88 µM in [13]; 0.359 µM in [14]; more than 25 µM in test [16]. Further, the IC50 in [19] came out at 0.179 µM. Besides, the Kd in test [3] worked out at 7.55 µM; in test [6], 3.3 µM; in [7], 8.5 µM; in test [10], 2.98 µM; in [15] it was 5.65 µM; in test [18], 7.4 µM. The outcome in test [5], in test [9] and in test [11] was Active.
